In assay [1] the target is T1, TRH receptor (TRH-R) expressed in Xenopus oocytes (Mus musculus, UniProt P21761).
T1 construct: injected with RNA transcribed in vitro from the plasmid containing the TRH-R cDNA (pBSmTRHR); expressed in transfected cells; host or cells: Xenopus laevis oocytes injected with in vitro transcribed RNA from pBSmTRHR
T1 sequence (P21761 1-393): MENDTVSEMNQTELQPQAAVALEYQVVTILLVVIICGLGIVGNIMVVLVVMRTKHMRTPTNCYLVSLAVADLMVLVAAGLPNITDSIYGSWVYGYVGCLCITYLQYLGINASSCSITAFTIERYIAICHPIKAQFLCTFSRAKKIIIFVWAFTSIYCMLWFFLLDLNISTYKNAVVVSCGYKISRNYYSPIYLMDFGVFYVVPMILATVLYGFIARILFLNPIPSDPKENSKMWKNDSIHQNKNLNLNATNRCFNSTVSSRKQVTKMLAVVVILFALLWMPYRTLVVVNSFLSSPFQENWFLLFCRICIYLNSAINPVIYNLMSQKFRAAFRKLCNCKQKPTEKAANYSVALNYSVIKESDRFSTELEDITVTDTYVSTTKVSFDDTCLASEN
In words: Competition for [3H]methylTRH binding to intact Xenopus oocytes injected with RNA transcribed in vitro from pBSmTRHR.
Method: FIG. 2 depicts TRH (the filled squares) and chlordiazepoxide (the unfilled circles) competion for the binding of [^3 H]methylTRH to oocytes expressing TRH receptors 3 days after injection of 5 ng of in vitro transcribed RNA. The results are presented in this figure as mean ± S.E. of duplicate determinations.
Xenopus oocytes were injected with 5 ng of sense RNA transcripts ans assayed for specific binding of TRH and electrophysiological responses to TRH. Binding to intact oocytes was performed as described in the literature [see Molecular Endocrinology 3:9070 (1989)], using 2 nM [^3 H]methylTRH as the labeled ligand, and unlabeled TRH and chlordiazepoxide as competitive inhibitors.
Five to 10 oocytes were incubated at 4° C. in 0.2 ml OR-2 containing 40 nm [^3 H]methylTRH without or with 1 μl unlabeled TRH for up to 3 hours. Oocytes were washed 7 times with 4 ml ice-cold OR-2 solution and radioactivity measured by liquid scintillation counting. Specific binding was calculated by subtracting radioactivity bound in the presence from that in the absence of unlabeled TRH. Nonspecific binding was between 30 and 45% of total binding.

Assay [2] deals with T2, TRH-R expressed in COS-1 cells (Mus musculus, UniProt P21761).
T2 construct: the entire TRH-R cDNA, according to the present invention, contained in a Not I/HindIII fragment was cloned directly into the eukaryotic expression vector pCDM8; expressed in transfected cells; host or cells: COS-1 cells transfected with pCDM8mTRHR
T2 sequence (P21761 1-393): T1 sequence (P21761 1-393)
Nature of the assay: Competition for [3H]methylTRH binding in COS-1 cells transfected with pCDM8mTRHR. To be noted: 48 hours, read-out: K3 (Ki) for displacement of [3H]methylTRH binding. The procedure:
In FIGS. 6 and 7, COS-1 cells were transfected with the TRH-R cDNA according to the present invention, in the mammalian expression vector pCDM8 (pCDM8m TRHR) and assayed for binding and responses 48 hours later. Specifically, FIG. 6, depicts the TRH (filled squares) and chlordiazepoxide (unfilled circles) competition for the binding of [^3 H]methylTRH. COS-1 cells transfected with pCDM8mTRHR were assayed for the binding of [^3 H]methylTRH in the presence of increasing amounts of either unlabeled TRH or chlordiazepoxide. Results are presented as mean ± range of data from duplicate determinations in one of two similar experiments. In FIG. 7, COS-1 cells transfected with pCDM8mTRHR were labeled with myo-[^3 H]inositol for 48 hours, washed, and tested for dose-dependent stimulation of inositol phosphate production by TRH. The results are presented as mean ± S.D. of triplicate determinations from one of two similar experiments. […]
No specific binding or TRH stimulated inositol phosphate formation was detectable in untransfected COS-1 cells or cells transfected with pCDM8 alone. As depicted in FIG. 6, [^3 H]methylTRH binding and displacement by TRH and chlordiazepoxide were measured. […]

In assay [3] the target is T2, TRH-R expressed in COS-1 cells. Nature of the assay: TRH-stimulated inositol phosphate formation in COS-1 cells transfected with pCDM8mTRHR. In kind it is cell-based. Conditions: labeled with myo-[3H]inositol 48 hours.
Method: In FIGS. 6 and 7, COS-1 cells were transfected with the TRH-R cDNA according to the present invention, in the mammalian expression vector pCDM8 (pCDM8m TRHR) and assayed for binding and responses 48 hours later. […] In FIG. 7, COS-1 cells transfected with pCDM8mTRHR were labeled with myo-[^3 H]inositol for 48 hours, washed, and tested for dose-dependent stimulation of inositol phosphate production by TRH. The results are presented as mean ± S.D. of triplicate determinations from one of two similar experiments.
COS-1 cells were transfected using the DEAE dextran method, and after 48 to 72 hours the cells were assayed for [^3 H]methylTRH binding and TRH stimulated inositol phosphate formation.
On the day prior to transfection, 35 mm, 6 well tissue culture plates were seeded with 6×10^5 in DMEM with 10% FCS; cells should be just subconfluent for transfection. A transfection cocktail was prepared: supercoiled plasmid DNA (ethanol precipitated if necessary) was resuspended in 0.3 ml PBS, and then vortexed. 0.1 ml DEAE-dextran was added to bring the final concentration to 0.5 mg/ml, and the solution mixed thoroughly. The tissue culture medium was aspirated from the cell cultures and the COS cells were rinsed twice with 2 ml of PBS warmed to 37° C. […]
Assay [4] deals with T3, TRH-R expressed in Xenopus oocytes (Mus musculus, UniProt P21761).
T3 construct: injected with RNA transcribed in vitro from the plasmid containing the TRH-R cDNA (pBSmTRHR); expressed in transfected cells; host or cells: Xenopus laevis oocytes injected with in vitro transcribed RNA from pBSmTRHR
T3 sequence (P21761 1-393): T1 sequence (P21761 1-393)
Nature of the assay: Electrophysiological response to TRH in voltage-clamped Xenopus oocytes injected with RNA transcribed from the TRH-R cDNA. In kind it is cell-based. Conditions: 3 days after injection of 5 ng RNA. The procedure: FIG. 3 more specifically depicts the concentration-response relationship of Xenopus oocytes 3 days following injection of 5 ng of in vitro transcribed RNA. In FIG. 3, the results are presented from two experiments with N≥6.
A single oocyte, in a 0.4 ml perfusion chamber, was impaled with two standard glass electrodes filed with 3M KCl and maintained under voltage clamp using a Dagan 8500 intracellular clamp. Drugs were included in the perfusate and applied at a flow rate of 8 ml/min. The apparent latency is the time between achieving greater than 80% of the perfusate concentration in the perfusion chamber (5.5 sec after switching to TRH) and the initial deflection of the pen on the chart recorder due to membrane depolarization.
RNA was injected (25-50 nl) at the equator of oocytes, and responses were tested 24 to 72 hours after injection.
This dose dependency is the same as that observed in GH3 cells when rapid effects of TRH, such as generation of inositol 1,4,5-triphosphate or elevation of cytoplasmic calcium, were measured [see J Biol Chem 261:2712 (1986) and J Biol Chem 259:5827 (1984)].

A further assay concerns pituitary TRH-R. To be noted: Neuroendocrinology 32:310 (1981); cited from earlier work.

Like-named read-outs stand apart in the source and are kept apart here.

Data on three compounds can be found in patent US5288621A, “Pituitary TRH receptor” (Cornell Research Foundation, Inc., priority 1990, dated 1994).

As to `NC(=O)[C@@H]1CCCN1C(=O)[C@H](Cc1cnc[nH]1)NC(=O)[C@@H]1CCC(=O)N1` [TRH, thyrotropin releasing hormone], the figures for the Ki in assay [1] and in assay [2] were around 30 nM and 10 nM, respectively. For the same compound, the EC50 in assay [3] is around 10 nM; in assay [4] (read-out: TRH concentration giving half-maximal electrophysiological response), 10 nM. Further, the “lowest TRH concentration that evoked an electrophysiological response” value in assay [4] is listed as 1 nM. For the same compound, the EC100 in assay [4] (read-out: TRH concentration giving maximum electrophysiological response) was determined as 0.1 µM.
Take `CNC1=Nc2ccc(Cl)cc2C(c2ccccc2)=[N+]([O-])C1` [chlordiazepoxide]: the Ki in assay [1] (Xenopus oocytes, 3 days after injection of 5 ng in vitro transcribed RNA, calculated, approximate, read-out: apparent inhibition constant (Ki) for inhibition of [3H]methylTRH binding) was around 3000 nM; in assay [2], 20000 nM.
In the case of [^3 H]methylTRH, the “affinity relative to TRH for the pituitary TRH-R (higher)” value in the assay with pituitary TRH-R is given as 10 fold.
